According to patent US20230000876A1, “TREATING CANCERS WITH A CYCLIN-DEPENDENT KINASE INHIBITOR” (Nuvation Bio Inc., priority 2021, published 2023):
Where two headings read alike, the source gives them in different places.

System: MCF-7 tumors
Format: in vivo
Conditions: for T/C / TGI: PG-D37
Protocol: The in vivo anti-tumor efficacy of the compound of formula (I) either alone or in combination with fulvestrant on MCF-7 breast tumor model on female Balb/c nude mice was assessed. MCF-7 cells are a breast cancer cell line that is HR+HER2−. See Booms et al., (2019) Cancer Epidemiol Biomarkers Prev 28(10); 1735-1745, which is hereby incorporated by reference.
The study was in two parts. The first part was designed to measure tumor growth inhibition (TGI). The second part was used to measure pharmacokinetic and pharmacodynamic (PKPD) parameters. In the studies, the compound of formula (I) was dosed orally (po) and fulvestrant was dosed subcutaneously. […]
The MCF-7 tumor cells were maintained in vitro in MEM supplemented with 10% heat inactivated fetal bovine serum at 37° C. in an atmosphere of 5% CO2 in air. The tumor cells were routinely subcultured twice weekly. The cells growing in an exponential growth phase were harvested and counted for tumor inoculation.
Each mouse was inoculated subcutaneously at the right flank with MCF-7 (10*10^6) cells in 0.2 mL of PBS mixed with Matrigel (50:50) for tumor development. 17β-Estradiol (0.36 mg, 60-day release) pellets (Innovative Research of America Cat. No.: SE-121, pellet size: 3.0 mm) were implanted 2 days before cell inoculation.
In TGI part, the treatments was started on day 7 after cell inoculation when the average tumor volume reaches 173 mm^3. 72 mice were selected and assigned into 9 groups. The testing articles were administrated to the mice according to Table 1.
For TGI part, the major endpoint was to see if the tumor growth could be delayed or mice could be cured. Tumor size was measured twice weekly in two dimensions using a caliper, and the volume was expressed in mm^3 using the formula: V=0.5 a×b^2 where a and b are the long and short diameters of the tumor, respectively. The tumor sizes are then used for the calculation of T/C and TGI values.
The T/C value (in percent) is an indication of antitumor effectiveness; T and C are the mean volume of the treated and control groups, respectively, on a given day.
TGI was calculated for each group using the formula: TGI (%)=[1−(Ti−T0)/(Vi−V0)]×100; Ti is the average tumor volume of a treatment group on PG-Di, T0 is the average tumor volume of the treatment group on the day of treatment start, Vi is the average tumor volume of the vehicle control group on the same day with Ti, and V0 is the average tumor volume of the vehicle group on the day of treatment start.
For comparison among of tumor volume of groups 2-9 and group 1, a one-way ANOVA was performed. All the analysis were conducted using GraphPad Prism software. p<0.05 was considered to be statistically significant.

CC(C)N1CCOc2c(F)cc(-c3nc(Nc4ccc(C5CCN(C)CC5)cn4)ncc3F)cc21 [Compound (I), 5-fluoro-4-(8-fluoro-4-isopropyl-3,4-dihydro-2H-benzo[b][1,4]oxazin-6-yl)-N-(5-(1-methylpiperidin-4-yl)pyridin-2-yl)pyrimidin-2-amine]
Tumor volume (mean ± SEM) (10 mg/kg PO QD, day 0): 173 ± 12 mm^3
Tumor volume (mean ± SEM) (10 mg/kg PO QD, day 3): 195 ± 14 mm^3
Tumor volume (mean ± SEM) (10 mg/kg PO QD, day 6): 188 ± 25 mm^3
Tumor volume (mean ± SEM) (10 mg/kg PO QD, day 9): 185 ± 15 mm^3
Tumor volume (mean ± SEM) (10 mg/kg PO QD, day 13): 179 ± 21 mm^3
Tumor volume (mean ± SEM) (10 mg/kg PO QD, day 16): 187 ± 22 mm^3
Tumor volume (mean ± SEM) (10 mg/kg PO QD, day 20): 228 ± 36 mm^3
Tumor volume (mean ± SEM) (10 mg/kg PO QD, day 23): 268 ± 37 mm^3
Tumor volume (mean ± SEM) (10 mg/kg PO QD, day 27): 310 ± 56 mm^3
Tumor volume (mean ± SEM) (10 mg/kg PO QD, day 30): 358 ± 60 mm^3
Tumor volume (mean ± SEM) (10 mg/kg PO QD, day 34): 446 ± 93 mm^3
Tumor volume (mean ± SEM) (10 mg/kg PO QD, day 37): 505 ± 116 mm^3
Tumor volume (mean ± SEM) (10 mg/kg PO QD, day 41): 530 ± 113 mm^3
Tumor volume (mean ± SEM) (10 mg/kg PO QD, day 44): 468 ± 99 mm^3
Tumor volume (mean ± SEM) (10 mg/kg PO QD, day 48): 472 ± 120 mm^3
T/C (10 mg/kg QD): 25.18%
TGI (10 mg/kg QD): 81.88%
Tumor volume (mean ± SEM) (30 mg/kg PO QD, day 0): 173 ± 11 mm^3
Tumor volume (mean ± SEM) (30 mg/kg PO QD, day 3): 192 ± 16 mm^3
Tumor volume (mean ± SEM) (30 mg/kg PO QD, day 6): 151 ± 24 mm^3
Tumor volume (mean ± SEM) (30 mg/kg PO QD, day 9): 153 ± 19 mm^3
Tumor volume (mean ± SEM) (30 mg/kg PO QD, day 13): 147 ± 17 mm^3
Tumor volume (mean ± SEM) (30 mg/kg PO QD, day 16): 154 ± 18 mm^3
Tumor volume (mean ± SEM) (30 mg/kg PO QD, day 20): 159 ± 21 mm^3
Tumor volume (mean ± SEM) (30 mg/kg PO QD, day 23): 175 ± 23 mm^3
Tumor volume (mean ± SEM) (30 mg/kg PO QD, day 27): 168 ± 25 mm^3
Tumor volume (mean ± SEM) (30 mg/kg PO QD, day 30): 186 ± 28 mm^3
Tumor volume (mean ± SEM) (30 mg/kg PO QD, day 34): 193 ± 34 mm^3
Tumor volume (mean ± SEM) (30 mg/kg PO QD, day 37): 227 ± 41 mm^3
Tumor volume (mean ± SEM) (30 mg/kg PO QD, day 41): 228 ± 51 mm^3
Tumor volume (mean ± SEM) (30 mg/kg PO QD, day 44): 234 ± 52 mm^3
Tumor volume (mean ± SEM) (30 mg/kg PO QD, day 48): 206 ± 39 mm^3
T/C (30 mg/kg QD): 11.32%
TGI (30 mg/kg QD): 97.06%
Toxicity (body weight as indirect measurement) (MCF-7 tumor-bearing mice, 10 or 30 mg/kg PO QD, alone or with fulvestrant, 49 days): not toxic
